Results on two compounds are retold here after article PMC8781960, “Structural Basis of 2-Phenylamino-4-phenoxyquinoline Derivatives as Potent HIV-1 Non-Nucleoside Reverse Transcriptase Inhibitors” (Molecules, 2022).

The subject of data set [1] is A549 (lung carcinoma). Put plainly: In vitro cytotoxicity (MTT). A digest of the protocol: (§1)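 Cells exposed to samples at various concentrations for 48 h; viability by MTT reduction, formazan dissolved in DMSO. Absorbance read at 550 nm with 650 nm reference.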
Data set [2] has as its system HL-60 (promyeloblast). The experiment in a line: In vitro cytotoxicity (MTT). To be noted: Homo sapiens, HL-60, 48 h, read-out: IC50 HL-60. In outline:
as §1

Data set [3] has as its system HeLA (cervical carcinoma). Put plainly: In vitro cytotoxicity (MTT). To be noted: Homo sapiens, HeLa, 48 h, read-out: IC50 HeLA. A digest of the protocol: as §1
Data set [4] concerns HepG2 (hepatocarcinoma). The experiment in a line: In vitro cytotoxicity (MTT). In outline: as §1
The subject of data set [5] is HuCCA-1 (cholangiocarcinoma). Put plainly: In vitro cytotoxicity (MTT). A digest of the protocol: as §1
Data set [6] has as its system MDA-MB-231 (hormone-independent breast cancer). Put plainly: In vitro cytotoxicity (MTT). A digest of the protocol:
as §1

Data set [7] concerns S102 (Thai liver cancer). The experiment in a line: In vitro cytotoxicity (MTT). In outline:
as §1

For data set [8], the system named is T47-D (hormone-dependent breast cancer). Put plainly: In vitro cytotoxicity (MTT). A digest of the protocol:
as §1

Data set [9] deals with MOLT-3 (acute lymphoblastic leukemia). The experiment in a line: In vitro cytotoxicity (XTT). To be noted: Homo sapiens, MOLT-3, 48 h, read-out: IC50 MOLT-3. For orientation: Tetrazolium dyes change colour on reduction, which living cells bring about.
Data set [10] concerns MRC-5 (normal embryonic lung cell). Put plainly: In vitro cytotoxicity (MTT), normal cell line. In outline:
as §1

In data set [11] the test system is H69AR (lung cancer, multidrug resistant). Put plainly: In vitro cytotoxicity (MTT). The data set is classed as cell-based, human. To be noted: 48 h.
For data set [12], the target named is T1, HIV-1 RT (Human immunodeficiency virus type 1 group M subtype B, UniProt P03366).
T1 construct: The reaction mixture consisted of template/primer complex, 2′-deoxy-nucleotide-5′-triphosphates (dNTPs), and RT enzyme in lysis buffer; purchased Roche Applied Science, Mannheim, Germany
Also noted: method as in PMID 31698495. Conditions: 1 µM; previously reported values for 5a–5d; cited from earlier work.

The mark [13] stands for this setting: at 50 µg/mL, inactive (IC50 ≥ 50 µg/mL).

Marks after values point to notes of the source that are not given here.

Take `Cc1cc(C#N)cc(C)c1Oc1cc(Nc2ccc(C#N)cc2)nc2ccccc12` [Compound 5d, 4-(2′,6′-Dimethyl-4′-cyanophenoxy)-2-(4″-cyanophenyl)-aminoquinoline]: the melting point (usually the temperature, or range, at which the solid turns liquid) was in the range of 256.5 to 257 °C. Besides, the “%C percentage cytotoxicity A549” value in data set [1] (setting [13]) was “%C = 21.0 ^c”. The half-inhibitory concentration (IC50) (commonly the concentration at which inhibition is half-maximal) in data set [2] came to 33.4 ± 1.7 µM. For the same compound, in data set [3], the concentration for half-maximal inhibition (IC50) worked out at 83.4 ± 5.7 µM. Moreover, in [4] (setting [13]), the “%C percentage cytotoxicity HepG2” value is “%C = 38.2 ^c”. The “%C percentage cytotoxicity HuCCA-1” value in data set [5] (setting [13]) is “%C = 3.0 ^c”. In addition, the “%C percentage cytotoxicity MDA-MB-231” value in data set [6] (setting [13]) is “%C = 14.9 ^c”. For the same compound, the “%C percentage cytotoxicity S102” value in data set [7] (setting [13]) is reported as “%C = 0.0 ^c”. The “%C percentage cytotoxicity T47-D” value in [8] (setting [13]) was “%C = 24.0 ^c”. For the same compound, the IC50 in data set [9] was 48.8 ± 41 µM. Further, in data set [10] (normal cell line, at 50 µg/mL, inactive (IC50 ≥ 50 µg/mL)), the “%C percentage cytotoxicity MRC-5” value is on record as “%C = 7.4 ^c”. Moreover, the “%C percentage cytotoxicity H69AR” value in [11] (human, 50 µg/mL) was “%C = 0.0 ^c”. In addition, in data set [12], the “Inhibitory activities (%) against HIV-1 RT” value is on record as 27.8 ± 3.1%.

`Cc1cc(C=O)cc(C)c1Oc1cc(Nc2ccc(C#N)cc2)nc2ccccc12` [Compound 5b, 4-(2′,6′-Dimethyl-4′-formylphenoxy)-2-(4″-cyanophenyl)-aminoquinoline]: the melting point is 291.3 to 292.2 °C. Also, the IC50 in data set [1] (Homo sapiens, A549, 48 h, read-out: IC50 A549) was 51.2 ± 3 µM. In addition, the IC50 in data set [2] came out at 4.5 ± 0.2 µM. For the same compound, the IC50 in data set [3] was 3.9 ± 0.6 µM. For the same compound, in data set [4] (Homo sapiens, HepG2, 48 h, read-out: IC50 HepG2), the IC50 worked out at 65.9 ± 6.1 µM. Moreover, in [5] (Homo sapiens, HuCC-A1, 48 h, read-out: IC50 HuCCA-1), the IC50 was 29.4 ± 2 µM. Also, in data set [6] (Homo sapiens, MDA-MB-231, 48 h, read-out: IC50 MDA-MB-231), the IC50 stood at 15.9 ± 0.4 µM. The half-inhibitory concentration (IC50) in data set [7] (Homo sapiens, 48 h, read-out: IC50 S102) was determined as 74 ± 5.3 µM. The 50% inhibitory concentration (IC50) in data set [8] (Homo sapiens, T47D, 48 h, read-out: IC50 T47-D) stood at 22.9 ± 0.9 µM. For the same compound, the IC50 in data set [9] was found to be 11.8 ± 1.6 µM. For the same compound, in data set [10] (Homo sapiens, MRC5, 48 h, read-out: IC50 MRC-5), the 50% inhibitory concentration (IC50) is 69.8 ± 4.3 µM. In [11] (Homo sapiens, H69AR, mean ± standard error), this compound returned an IC50 of 27.6 ± 3.4 µM. Besides, the “Inhibitory activities (%) against HIV-1 RT” value in [12] is reported as 34.0 ± 2.5%.
